From patent US12384764B2, “Pharmaceutical compounds” (Pfizer Inc., priority 2019, dated 2025)

Legend:
[1] = Liver microsomal stability, human; type: in vitro ADME; conditions: pooled liver microsomes, pH 7.4; human liver microsomes 0.5 mg/mL, 1 μM compound, NADPH, 37° C.; read-out: Liver Microsomal Stability t½, human
Procedure: (§1) Compounds were subjected to the following assays to investigate liver microsomal stability.
(§2) Microsomal Incubation: Experimental Procedure
(§3) Pooled liver microsomes were purchased from a reputable commercial supplier and stored at −80° C. prior to use. Microsomes (final protein concentration 0.5 mg/mL), 0.1 M phosphate buffer pH 7.4 and test compound (final substrate concentration 1 μM; final DMSO concentration 0.25%) were pre-incubated at 37° C. prior to the addition of NADPH (final concentration 1 mM) to initiate the reaction. The final incubation volume was 50 uL. A control incubation was included for each compound tested where 0.1 M phosphate buffer pH 7.4 was added instead of NADPH (minus NADPH). Two control compounds were included with each species. All incubations were performed singularly for each test compound. Each compound was incubated for 0, 5, 15, 30 and 45 min. The control (minus NADPH) was incubated for 45 min only. The reactions were stopped by transferring incubate into acetonitrile at the appropriate time points, in a 1:3 ratio. The termination plates are centrifuged at 3,000 rpm for 20 min at 4° C. to precipitate the protein. Following protein precipitation, the sample supernatants were combined in cassettes of up to 4 compounds, internal standard added, and samples analysed by LC-MS/MS. From a plot of ln peak area ratio (compound peak area/internal standard peak area) against time, the gradient of the line was determined. Subsequently, half-life (t1/2) and intrinsic clearance (CLint) were calculated.

Cell cytotoxicity (CC50) = type: cell-based; conditions: human, Hep-G2 cells; mean of at least two experiments
[2] = Liver microsomal stability, rat; type: in vitro ADME; conditions: pooled liver microsomes, pH 7.4; rat liver microsomes 0.5 mg/mL, 1 μM compound, NADPH, 37° C.; read-out: Liver Microsomal Stability t½, rat
Procedure: as §1, §2, §3

RSV A2 = experiment: RSV plaque reduction assay; type: cell-based; conditions: human respiratory syncytial virus, HepG2, 48 h; Hep-G2 cells, RSV A2, 2 days incubation; mean of at least two experiments
Procedure: Compounds were subjected to an RSV plaque reduction assay according to the following protocol.
Hep-G2 cells (ECACC, 85011430) were passaged in flasks and seeded in 24-well plates in DMEM containing antibiotics and supplemented with 10% FBS. During inoculation and subsequent incubation, cells were cultured in DMEM containing 2% FBS. 100 plaque forming unit/well of RSV (RSV A2 ECACC, 0709161v) was mixed with eight serial dilutions of compound. Subsequently, 100 μL of the virus/compound mixtures was added to confluent Hep-G2 cell monolayers. The cells and virus/compound mixtures were incubated at 37° C. in a humidified 5% CO2 incubator for 2 h prior to removal of the inoculum and addition of 1 mL of overlay (DMEM containing FBS and 0.8% CMC) containing compound dilutions. The cells and were incubated at 37° C. in a humidified 5% CO2 incubator for 2 days.
Cells were washed with PBS before adding 75/25% v/v EtOH/MeOH, for 3 min. Fixative was removed and plates were washed with PBS. A pre-titrated amount of the primary antibody was added in 200 μL PBS/2% milk powder, and plates incubated for 90 min at 37° C. The plates were washed 3 times with PBS/0.05% Tween20 before addition of rabbit anti-goat horse radish peroxidase in 200 μL PBS/2% milk powder, and incubated for 1 h at 37° C. Following three wash steps with PBS/0.05% Tween20, 200 μL ready-to-use TrueBlue was added and plates were incubated at rt for 10-15 min before washing with water. After removal of water, plates were air-dried in the dark.
Plates were scanned and analysed using the Immunospot S6 Macro analyser, which is equipped with BioSpot analysis software for counting immunostained plaques (virospots). Plaque counts were used to calculate % infection relative to the mean of the plaque count in the virus control wells for RSV. The EC50 value was calculated as 50% reduction in signal, respectively, by interpolation of inhibition curves fitted with a 4-parameter nonlinear regression with a variable slope in Dotmatics. Plaque EC50 and cell toxicity CC50 values are a mean of at least two experiments and figures are rounded to whole units.

[3] = Liver microsomal stability, dog; type: in vitro ADME; conditions: pooled liver microsomes, pH 7.4; dog liver microsomes 0.5 mg/mL, 1 μM compound, NADPH, 37° C.; read-out: Liver Microsomal Stability t½, dog
Procedure: as §1, §2, §3

RSV = conditions: Antimicrobial Agents and Chemotherapy, September 2007, 3346-3353; cited from earlier work

CCn1ncc(C(=O)N[C@H]2N=C(c3ccccc3)c3ccccc3NC2=O)c1Oc1c(F)cc(C)cc1F [Example 1, 5-(2,6-Difluoro-4-methylphenoxy)-1-ethyl-N-[(3S)-2-oxo-5-phenyl-1,3-dihydro-1,4-benzodiazepin-3-yl]pyrazole-4-carboxamide]
half-life at 1 μM [1]: 36 min
CC50 at 2 days (Cell cytotoxicity (CC50)): > 25 µM
half-life at 1 μM [2]: 5 min
EC50 (RSV A2): 91 nM
half-life at 1 μM [3]: 38.6 min

Cc1ccc(Oc2c(C(=O)N[C@H]3N=C(c4ccccc4)c4ccccc4NC3=O)cnn2C2CCOCC2)c(F)c1 [Example 2, 5-(2-Fluoro-4-methylphenoxy)-1-(oxan-4-yl)-N-[(3S)-2-oxo-5-phenyl-1,3-dihydro-1,4-benzodiazepin-3-yl]pyrazole-4-carboxamide]
CC50 at 2 days (Cell cytotoxicity (CC50)): > 25 µM
EC50 (RSV A2): 89 nM

O=C(N[C@H]1N=C(c2ccccc2)c2cccc(F)c2NC1=O)c1cnn(C2COC2)c1Oc1ccc(Cl)cc1F [Example 3, 5-(4-Chloro-2-fluorophenoxy)-N-[(3S)-9-fluoro-2-oxo-5-phenyl-1,3-dihydro-1,4-benzodiazepin-3-yl]-1-(oxetan-3-yl)pyrazole-4-carboxamide]
half-life at 1 μM [1]: 24.5 min
CC50 at 2 days (Cell cytotoxicity (CC50)): > 25 µM
half-life at 1 μM [2]: 38.3 min
EC50 (RSV A2): 71 nM
half-life at 1 μM [3]: 140 min

O=C(N[C@H]1N=C(c2ccccc2)c2cccc(F)c2NC1=O)c1cnn(C2CCOCC2)c1Oc1ccc(Cl)cc1F [Example 4, 5-(4-Chloro-2-fluorophenoxy)-N-[(3S)-9-fluoro-2-oxo-5-phenyl-1,3-dihydro-1,4-benzodiazepin-3-yl]-1-(oxan-4-yl)pyrazole-4-carboxamide]
half-life at 1 μM [1]: 38.8 min
CC50 at 2 days (Cell cytotoxicity (CC50)): > 25 µM
half-life at 1 μM [2]: 19.7 min
EC50 (RSV A2): 67 nM
half-life at 1 μM [3]: 117 min

O=C(N[C@H]1N=C(c2ccccc2)c2cccc(F)c2NC1=O)c1cnn(C2COC2)c1Oc1c(F)cc(Cl)cc1F [Example 5, 5-(4-Chloro-2,6-difluorophenoxy)-N-[(3S)-9-fluoro-2-oxo-5-phenyl-1,3-dihydro-1,4-benzodiazepin-3-yl]-1-(oxetan-3-yl)pyrazole-4-carboxamide]
half-life at 1 μM [1]: 15.8 min
CC50 at 2 days (Cell cytotoxicity (CC50)): > 25 µM
half-life at 1 μM [2]: 42.3 min
EC50 (RSV A2): 74 nM
half-life at 1 μM [3]: 174 min

O=C(N[C@H]1N=C(c2ccccc2)c2cccc(F)c2NC1=O)c1cnn(C2CCOCC2)c1Oc1c(F)cc(Cl)cc1F [Example 6, 5-(4-Chloro-2,6-difluorophenoxy)-N-[(3S)-9-fluoro-2-oxo-5-phenyl-1,3-dihydro-1,4-benzodiazepin-3-yl]-1-(oxan-4-yl)pyrazole-4-carboxamide]
CC50 at 2 days (Cell cytotoxicity (CC50)): > 25 µM
EC50 (RSV A2): 55 nM

O=C(Nc1ccccc1F)N[C@H]1N=C(c2ccccc2)c2ccccc2NC1=O [RSV604]
anti-RSV activity (RSV): sub-micromolar
